# Source: patent publication US4559323A, “A41030 Antibiotics” (Eli Lilly and Company, priority 1984, dated 1985)
# Where two headings read alike, the source gives them in different places.
# How the values were obtained:
# [1] = Electrometric titration (pKa); assay type: physicochemical; details: electrometric titration in 66% dimethylformamide in water
# Hemophilus influenzae = test: Agar-dilution MIC; assay type: cell-based; details: Table 17, 24 hours
# Streptococcus pyogenes = test: Agar-dilution MIC; assay type: cell-based; details: Table 17; 24 hours; Streptococcus pyogenes C203
# Text: (§1) The agar-dilution procedure described by the International Collaborative study (ICS) group was used to determine the minimum inhibitory concentrations (MIC's).
# [2] = test system: Streptococcus sp. (Group D); test: Agar-dilution MIC; assay type: cell-based; details: Table 17, 24 hours
# Text: as §1
# Bacteroides fragilis = test: Agar-dilution MIC (anaerobes); assay type: cell-based
# Text: as §1
# Bacteroides corrodens [3] = test: Agar-dilution MIC (anaerobes); assay type: cell-based; details: Table 12; 24-hour; B. corrodens 1874
# Text: (§2) The A41030 antibiotics, factors A, B, and C, are active against a genus of anaerobic bacteria identified as Bacteroides sp., the 24-hour MIC values being determined by the agar-dilution method, and are set forth in Table 12, which follows.
# Bacteroides vulgatis [4] = test: Agar-dilution MIC (anaerobes); assay type: cell-based; details: Table 12; 24-hour; B. vulgatis 1563
# Text: as §2
# B. thetaiotaomicron = assay type: cell-based
# Text: as §1
# Clostridium difficile [5] = assay type: cell-based; details: Table 16
# Text: The A41030 antibiotic factors A, B, C, D, E, F, and G, are also active against a number of strains of Clostridium difficile, as determined by the agar-dilution method.
# Clostridium perfringens = assay type: cell-based; details: Table 14; Clostridium perfringens 81
# Clostridium septicum = test: Agar-dilution MIC (anaerobes); assay type: cell-based; details: Table 14; Clostridium septicum 1128
# Peptococcus prevoti = test: Agar-dilution MIC (anaerobes); assay type: cell-based
# [6] = test system: Peptostreptococcus anaerobius; test: Agar-dilution MIC (anaerobes); assay type: cell-based
# [7] = test system: Peptostreptococcus intermedius; test: Agar-dilution MIC (anaerobes); assay type: cell-based; details: Table 15
# [8] = test system: Bacteroides melaninogenicus; test: Agar-dilution MIC (anaerobes); assay type: cell-based; details: Table 14; Bacteroides melaninogenicus 2736
# Fusobacterium symbiosum = test: Agar-dilution MIC (anaerobes); assay type: cell-based; details: Table 14; Fusobacterium symbiosum 1470
# [9] = test system: Fusobacterium necrophorum; test: Agar-dilution MIC (anaerobes); assay type: cell-based; details: Table 14; Fusobacterium necrophorum 6054A
# Salmonella typhi = test: Agar-dilution MIC; assay type: cell-based; details: Table 17, 24 hours
# S. pyogenes = test: In vivo oral activity against S. pyogenes in mice
# Bacteroides corrodens [10] = test: Agar-dilution MIC (anaerobes); assay type: cell-based; details: Table 14; Bacteroides corrodens 1874
# Bacteroides vulgatis [11] = test: Agar-dilution MIC (anaerobes); assay type: cell-based; details: Table 14; Bacteroides vulgatis 1211
# Clostridium difficile [12] = assay type: cell-based; details: Table 14; Clostridium difficile 2994
substance,measurement,setting,value
A41030 factor C,"pKa, first titratable group",[1],about 5.5
same,MIC,Hemophilus influenzae; Haemophilus influenzae 251,4 µg/mL
same,MIC,Hemophilus influenzae; Haemophilus influenzae Brun,16 µg/mL
same,MIC,Streptococcus pyogenes,1 µg/mL
same,MIC,[2]; Streptococcus sp. Group D 9960,4 µg/mL
same,MIC,[2]; Streptococcus sp. Group D X66,2 µg/mL
same,MIC,"Bacteroides fragilis; Table 12, 24-hour, B. fragilis 2",32 µg/mL
same,MIC,"Bacteroides fragilis; Table 12, 24-hour, B. fragilis 9",32 µg/mL
same,MIC,"Bacteroides fragilis; Table 12, 24-hour, B. fragilis 103",32 µg/mL
same,MIC,"Bacteroides fragilis; Table 12, 24-hour, B. fragilis 104",32 µg/mL
same,MIC,"Bacteroides fragilis; Table 12, 24-hour, B. fragilis 106",32 µg/mL
same,MIC,"Bacteroides fragilis; Table 12, 24-hour, B. fragilis 107",32 µg/mL
same,MIC,"Bacteroides fragilis; Table 12, 24-hour, B. fragilis 108",64 µg/mL
same,MIC,"Bacteroides fragilis; Table 12, 24-hour, B. fragilis 110",64 µg/mL
same,MIC,"Bacteroides fragilis; Table 12, 24-hour, B. fragilis 111",32 µg/mL
same,MIC,"Bacteroides fragilis; Table 12, 24-hour, B. fragilis 112",32 µg/mL
same,MIC,"Bacteroides fragilis; Table 12, 24-hour, B. fragilis 113",32 µg/mL
same,MIC,"Bacteroides fragilis; Table 12, 24-hour, B. fragilis 1451",64 µg/mL
same,MIC,"Bacteroides fragilis; Table 12, 24-hour, B. fragilis 1470",64 µg/mL
same,MIC,"Bacteroides fragilis; Table 12, 24-hour, B. fragilis 1877",32 µg/mL
same,MIC,"Bacteroides fragilis; Table 12, 24-hour, B. fragilis 9032",32 µg/mL
same,MIC,"Bacteroides fragilis; Table 14, Bacteroides fragilis 1877",16 µg/mL
same,MIC,"Bacteroides fragilis; Table 14, Bacteroides fragilis 1936B",32 µg/mL
same,MIC,Bacteroides corrodens [3],32 µg/mL
same,MIC,Bacteroides vulgatis [4],32 µg/mL
same,MIC,"B. thetaiotaomicron; Table 12, 24-hour, B. thetaiotaomicron 1438",32 µg/mL
same,MIC,"B. thetaiotaomicron; Table 12, 24-hour, B. thetaiotaomicron 1900A",128 µg/mL
same,MIC,"B. thetaiotaomicron; Table 14, Bacteroides thetalotaomicron 1438",64 µg/mL
same,MIC,Clostridium difficile [5]; C. difficile 78,1.0 µg/mL
same,MIC,Clostridium difficile [5]; C. difficile 107B,1.0 µg/mL
same,MIC,Clostridium difficile [5]; C. difficile 111F,2 µg/mL
same,MIC,Clostridium difficile [5]; C. difficile 1153,2 µg/mL
same,MIC,Clostridium difficile [5]; C. difficile 2634,2 µg/mL
same,MIC,Clostridium difficile [5]; C. difficile 3424-5B,1.0 µg/mL
same,MIC,Clostridium difficile [5]; C. difficile 3816,2 µg/mL
same,MIC,Clostridium difficile [5]; C. difficile 3950,2 µg/mL
same,MIC,Clostridium difficile [5]; C. difficile 6890,2 µg/mL
same,MIC,Clostridium difficile [5]; C. difficile 8484,1.0 µg/mL
same,MIC,Clostridium difficile [5]; C. difficile A-194,2 µg/mL
same,MIC,Clostridium difficile [5]; C. difficile A-195,1.0 µg/mL
same,MIC,Clostridium difficile [5]; C. difficile A-196,2 µg/mL
same,MIC,Clostridium difficile [5]; C. difficile A-279,2 µg/mL
same,MIC,Clostridium difficile [5]; C. difficile A-280,1.0 µg/mL
same,MIC,Clostridium difficile [5]; C. difficile A-281,2 µg/mL
same,MIC,Clostridium difficile [5]; C. difficile WAL-2112,2 µg/mL
same,MIC,Clostridium difficile [5]; C. difficile WAL-3657,2 µg/mL
same,MIC,Clostridium difficile [5]; C. difficile WAL-4268,1.0 µg/mL
same,MIC,Clostridium perfringens,1.0 µg/mL
same,MIC,Clostridium septicum,8 µg/mL
same,MIC,"Peptococcus prevoti; Table 14, Peptococcus prevoti 1281",≤ 0.25 µg/mL
same,MIC,"Peptococcus prevoti; Table 15, Pc. prevoti 1281",1.0 µg/mL
same,MIC,"Peptococcus prevoti; Table 15, Pc. prevoti 1293",0.5 µg/mL
same,MIC,"Peptococcus prevoti; Table 15, Pc. prevoti 1407",1.0 µg/mL
same,MIC,"[6]; Table 14, Peptostreptococcus anaerobius 1428",≤ 0.25 µg/mL
same,MIC,"[6]; Table 15, Ps. anaerobius 52",0.25 µg/mL
same,MIC,"[6]; Table 15, Ps. anaerobius 59",0.25 µg/mL
same,MIC,"[6]; Table 15, Ps. anaerobius 1418",≤ 0.03 µg/mL
same,MIC,"[6]; Table 15, Ps. anaerobius 1428",0.25 µg/mL
same,MIC,"[6]; Table 15, Ps. anaerobius 1451",0.25 µg/mL
same,MIC,"[6]; Table 15, Ps. anaerobius 1477",0.25 µg/mL
same,MIC,[7]; Ps. intermedius 1264,≤ 0.03 µg/mL
same,MIC,[7]; Ps. intermedius 1624,1.0 µg/mL
same,MIC,[8],4 µg/mL
same,MIC,Fusobacterium symbiosum,1.0 µg/mL
same,MIC,[9],16 µg/mL
same,MIC,Salmonella typhi; Salmonella typhi 1335,> 128 µg/mL
same,MIC,Salmonella typhi; Salmonella typhi X514,> 128 µg/mL
same,in vivo oral activity,S. pyogenes,> 300 mg./kg.X2
same,MIC,Bacteroides corrodens [10],32 µg/mL
same,MIC,Bacteroides vulgatis [11],32 µg/mL
same,MIC,Clostridium difficile [12],16 µg/mL
